Biological target: TNFα (Homo sapiens, UniProt P01375)
Assay: TNF induced HEK-Blue assay (NF-kB-driven secreted alkaline phosphatase reporter)
Assay type: cell-based
Conditions: TNFα 0.5 ng/mL, HEK-Blue-CD40L cells, 18 h; read-out: TNF induced HEK-Blue assay IC50 value
How it was run: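 HEK-Blue-CD40L cells (NF-kB-driven SEAP reporter), 20,000/well, added after 30 min pre-incubation of compound (0.004–25 μM final) with TNFα 0.5 ng/mL final at 37 °C; 18 h incubation. SEAP read with QUANTI-Blue at 620 nm; IC50 from 4-parameter logistic fit, normalized to unstimulated and stimulated DMSO controls.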

Sequence of TNFα (P01375 77-233 limits assumed): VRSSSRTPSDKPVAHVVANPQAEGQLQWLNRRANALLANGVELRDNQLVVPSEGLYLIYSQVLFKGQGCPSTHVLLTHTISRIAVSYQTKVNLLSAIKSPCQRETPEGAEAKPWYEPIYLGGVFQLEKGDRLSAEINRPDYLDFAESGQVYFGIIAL

| Structure (SMILES) | IC50 |
| --- | --- |
| C[C@@H](Nc1c(Cl)cnc2ccccc12)c1cc(-c2ccnc3[nH]ccc23)ccc1F [Example 525, (R)-3-chloro-N-(1-(2-fluoro-5-(1H-pyrrolo[2,3-b]pyridin-4-yl)phenyl)ethyl) quinolin-4-amine] | 1000 to 10000 nM |
| C[C@@H](Nc1c(Cl)cnc2ccccc12)c1cc(-c2cccc(N)c2)ccc1F [Example 526, (R)—N-(1-(3′-amino-4-fluoro-[1,1′-biphenyl]-3-yl)ethyl)-3-chloroquinolin-4-amine] | 1000 to 10000 nM |
| COc1cc(-c2ccc(F)c([C@@H](C)Nc3c(Cl)cnc4ccccc34)c2)c(F)cn1 [Example 527, (R)-3-chloro-N-(1-(2-fluoro-5-(5-fluoro-2-methoxypyridin-4-yl)phenyl)ethyl)quinolin-4-amine] | 1000 to 10000 nM |
| C[C@@H](Nc1c(Cl)cnc2ccccc12)c1cc(-c2cc3ccccc3[nH]2)ccc1F [Example 528, (R)-3-chloro-N-(1-(2-fluoro-5-(1H-indol-2-yl)phenyl)ethyl)quinolin-4-amine] | 1000 to 10000 nM |
| Cc1ccncc1-c1ccc(F)c([C@@H](C)Nc2c(Cl)cnc3ccccc23)c1 [Example 529, (R)-3-chloro-N-(1-(2-fluoro-5-(4-methylpyridin-3-yl)phenyl)ethyl)quinolin-4-amine] | < 1000 nM |
| Cc1nc2ccccc2c(N[C@H](C)c2cc(-c3cncnc3)ccc2F)c1Cl [Example 530, (R)-3-chloro-N-(1-(2-fluoro-5-(pyrimidin-5-yl)phenyl)ethyl)-2-methylquinolin-4-amine] | < 1000 nM |
| Cc1nc2ccccc2c(N[C@H](C)c2cc(-c3cccnc3)ccc2F)c1Cl [Example 531, (R)-3-chloro-N-(1-(2-fluoro-5-(pyridin-3-yl)phenyl)ethyl)-2-methylquinolin-4-amine] | < 1000 nM |
| C[C@@H](Nc1c(Cl)cnc2ccc(Br)cc12)c1cc(-c2cncnc2)ccc1F [Example 532, (R)-6-bromo-3-chloro-N-(1-(2-fluoro-5-(pyrimidin-5-yl)phenyl)ethyl)quinolin-4-amine] | < 1000 nM |
| Cc1nc2ccccc2c(N[C@H](C)c2cc(-c3cn[nH]c3)ccc2F)c1Cl [Example 533, (R)-3-chloro-N-(1-(2-fluoro-5-(1H-pyrazol-4-yl)phenyl)ethyl)-2-methylquinolin-4-amine] | < 1000 nM |
| Cc1ncc(-c2ccc(F)c([C@@H](C)Nc3c(Cl)c(C)nc4ccccc34)c2)cn1 [Example 534, (R)-3-chloro-N-(1-(2-fluoro-5-(2-methylpyrimidin-5-yl)phenyl)ethyl)-2-methylquinolin-4-amine] | < 1000 nM |
| Cc1ncc(-c2ccc(F)c([C@@H](C)Nc3c(Cl)cnc4ccccc34)c2)cn1 [Example 535, (R)-3-chloro-N-(1-(2-fluoro-5-(2-methylpyrimidin-5-yl)phenyl)ethyl)quinolin-4-amine] | < 1000 nM |
| C[C@@H](Nc1c(Cl)cnc2ccccc12)c1cc(-c2cnc(N(C)C)nc2)ccc1F [Example 536, (R)-3-chloro-N-(1-(5-(2-(dimethylamino)pyrimidin-5-yl)-2-fluorophenyl)ethyl)quinolin-4-amine] | 1000 to 10000 nM |
| C[C@@H](Nc1c(Cl)cnc2ccccc12)c1cc(-c2cnc3[nH]ccc3c2)ccc1F [Example 537, (R)-3-chloro-N-(1-(2-fluoro-5-(1H-pyrrolo[2,3-b]pyridin-5-yl)phenyl)ethyl)quinolin-4-amine] | < 1000 nM |
| Cc1nc2ccccc2c(N[C@H](C)c2cc(Br)ccc2F)c1Cl [Example 538, (R)—N-(1-(5-bromo-2-fluorophenyl)ethyl)-3-chloro-2-methylquinolin-4-amine] | 1000 to 10000 nM |
| C[C@@H](Nc1c(Cl)cnc2ccccc12)c1cc(-c2cccc(C#N)c2)ccc1F [Example 539, (R)-3′-(1-((3-chloroquinolin-4-yl)amino)ethyl)-4′-fluoro-[1,1′-biphenyl]-3-carbonitrile] | < 1000 nM |
| C[C@@H](Nc1c(Cl)cnc2ccc(-c3ccncc3)cc12)c1cc(-c2cncnc2)ccc1F [Example 540, (R)-3-chloro-N-(1-(2-fluoro-5-(pyrimidin-5-yl)phenyl)ethyl)-6-(pyridin-4-yl)quinolin-4-amine] | < 1000 nM |
| C[C@@H](Nc1c(Cl)cnc2ccccc12)c1cc(-c2cncc(C#N)c2)ccc1F [Example 541, (R)-5-(3-(1-((3-chloroquinolin-4-yl)amino)ethyl)-4-fluorophenyl)nicotinonitrile] | 1000 to 10000 nM |
| C[C@@H](Nc1c(Cl)cnc2ccccc12)c1cc(-c2cncs2)ccc1F [Example 542, (R)-3-chloro-N-(1-(2-fluoro-5-(thiazol-5-yl)phenyl)ethyl)quinolin-4-amine] | < 1000 nM |
| COc1ncc(-c2ccc(F)c([C@@H](C)Nc3c(Cl)cnc4ccccc34)c2)cn1 [Example 543, (R)-3-chloro-N-(1-(2-fluoro-5-(2-methoxypyrimidin-5-yl)phenyl)ethyl)quinolin-4-amine] | 10000 to 25000 nM |

| Structure (SMILES) | IC50 |
| --- | --- |
| C[C@@H](Nc1c(Cl)cnc2ccc(F)cc12)c1cc(-c2cncnc2)ccc1F [Example 544, (R)-3-chloro-6-fluoro-N-(1-(2-fluoro-5-(pyrimidin-5-yl)phenyl)ethyl)quinolin-4-amine] | < 1000 nM |
| C[C@@H](Nc1c(Cl)cnc2ccc(Cl)cc12)c1cc(-c2cncnc2)ccc1F [Example 545, (R)-3,6-dichloro-N-(1-(2-fluoro-5-(pyrimidin-5-yl)phenyl)ethyl)quinolin-4-amine] | < 1000 nM |
| C[C@@H](Nc1ccnc2ccc(Br)cc12)c1cc(-c2cncnc2)ccc1F [Example 546, (R)-6-bromo-N-(1-(2-fluoro-5-(pyrimidin-5-yl)phenyl)ethyl)quinolin-4-amine] | 10000 to 25000 nM |
| C[C@@H](Nc1c(Cl)cnc2ccccc12)c1cc(-c2ccccc2N)ccc1F [Example 547, (R)—N-(1-(2′-amino-4-fluoro-[1,1′-biphenyl]-3-yl)ethyl)-3-chloroquinolin-4-amine] | 1000 to 10000 nM |
| COc1ccncc1-c1ccc(F)c([C@@H](C)Nc2c(Cl)cnc3ccccc23)c1 [Example 548, (R)-3-chloro-N-(1-(2-fluoro-5-(4-methoxypyridin-3-yl)phenyl)ethyl) quinolin-4-amine] | < 1000 nM |
| COc1ccccc1-c1ccc(F)c([C@@H](C)Nc2c(Cl)cnc3ccccc23)c1 [Example 549, (R)-3-chloro-N-(1-(4-fluoro-2′-methoxy-[1,1′-biphenyl]-3-yl)ethyl)quinolin-4-amine] | 1000 to 10000 nM |
| C[C@@H](Nc1c(Cl)cnc2ccc(-c3cnn(C)c3)cc12)c1cc(-c2cncnc2)ccc1F [Example 550, (R)-3-chloro-N-(1-(2-fluoro-5-(pyrimidin-5-yl)phenyl)ethyl)-6-(1-methyl-1H-pyrazol-4-yl)quinolin-4-amine] | < 1000 nM |
| C[C@@H](Nc1c(Cl)cnc2ccccc12)c1cc(-c2cncc(C(=O)N3CCOCC3)c2)ccc1F [Example 551, (R)-(5-(3-(1-((3-chloroquinolin-4-yl)amino)ethyl)-4-fluorophenyl)pyridin-3-yl)(morpholino)methanone] | 1000 to 10000 nM |
| C[C@@H](Nc1c(Cl)cnc2ccccc12)c1cc(-c2ccccc2C#N)ccc1F [Example 552, (R)-3′-(1-((3-chloroquinolin-4-yl)amino)ethyl)-4′-fluoro-[1,1′-biphenyl]-2-carbonitrile] | < 1000 nM |
| C[C@@H](Nc1c(Cl)cnc2ccc(-c3cnc(C(C)(C)O)nc3)cc12)c1cc(-c2cccnc2)ccc1F [Example 553, (R)-2-(5-(3-chloro-4-((1-(2-fluoro-5-(pyridin-3-yl)phenyl)ethyl)amino)quinolin-6-yl)pyrimidin-2-yl)propan-2-ol] | < 1000 nM |
| Cc1nc2cc(F)c(-c3cnc(C(C)(C)O)nc3)cc2c(N[C@H](C)c2cc(CC(N)=O)ccc2F)c1Cl [Example 554, (R)-2-(3-(1-((3-chloro-7-fluoro-6-(2-(2-hydroxypropan-2-yl)pyrimidin-5-yl)-2-methylquinolin-4-yl)amino)ethyl)-4-fluorophenyl)acetamide] | < 1000 nM |
| C[C@@H](Nc1c(Cl)cnc2cccnc12)c1cc(-c2cncnc2)ccc1F [Example 555, (R)-3-chloro-N-(1-(2-fluoro-5-(pyrimidin-5-yl)phenyl)ethyl)-1,5-naphthyridin-4-amine] | < 1000 nM |
| Cc1nc2ncccc2c(N[C@H](C)c2cc(-c3cncnc3)ccc2F)c1Cl [Example 556, (R)-3-chloro-N-(1-(2-fluoro-5-(pyrimidin-5-yl)phenyl)ethyl)-2-methyl-1,8-naphthyridin-4-amine] | 10000 to 25000 nM |
| CC[C@H](Nc1c(Cl)cnc2ccccc12)c1cc(-c2cncnc2)ccc1F [Example 557, (S)-3-chloro-N-(1-(2-fluoro-5-(pyrimidin-5-yl)phenyl)propyl)quinolin-4-amine] | 1000 to 10000 nM |
| CC[C@@H](Nc1c(Cl)cnc2ccccc12)c1cc(-c2cncnc2)ccc1F [Example 558, (R)-3-chloro-N-(1-(2-fluoro-5-(pyrimidin-5-yl)phenyl)propyl)quinolin-4-amine] | < 1000 nM |
| Fc1ccc(-c2cncnc2)cc1[C@H](Nc1c(Cl)cnc2ccccc12)C(F)F [Example 559, (S)-3-chloro-N-(2,2-difluoro-1-(2-fluoro-5-(pyrimidin-5-yl)phenyl)ethyl)quinolin-4-amine] | < 1000 nM |
| Cc1nc2cc(F)c(-c3cnc(N4CCNC(=O)C4)nc3)cc2c(N[C@H](C)c2cc(Br)ccc2F)c1Cl [Example 560, (R)-4-(5-(4-((1-(5-bromo-2-fluorophenyl)ethyl)amino)-3-chloro-7-fluoro-2-methylquinolin-6-yl)pyrimidin-2-yl)piperazin-2-one] | 1000 to 10000 nM |
| Cc1nc2cc(F)c(-c3cnc(N4CCNC(=O)C4)nc3)cc2c(N[C@H](C)c2cc(C#N)ccc2F)c1Cl [Example 561, (R)-3-(1-((3-chloro-7-fluoro-2-methyl-6-(2-(3-oxopiperazin-1-yl)pyrimidin-5-yl)quinolin-4-yl)amino)ethyl)-4-fluorobenzonitrile] | < 1000 nM |
